Measured values taken from patent US20180235870A1, “TRANSDERMAL FORMULATIONS FOR DELIVERY OF BERBERINE COMPOUNDS, AND THEIR USE IN THE TREATMENT OF BERBERINE-RESPONSIVE DISEASES AND CONDITIONS” (DELIVRA INC., priority 2015, published 2018).
Like-named read-outs stand apart in the source and are kept apart here.

Key:
physchem = type: physicochemical
Description: The berberine partition coefficient procedure was used to assess the properties of berberine, which was determined to be an overall hydrophilic molecule. […] The solution was shaken by hand for 30 seconds and allowed to stand for 5 minutes. […] The solution was mixed for one hour using a rotating tube inverter (VWR, 13916-822). A blank sample containing water and octanol (0.7 mL of each) was prepared. […] The sample was monitored using UV/V is at wavelengths 230/600 nm and 280/600 nm. Autosampler temperature was maintained at 24° C. and column was at 30° C. The two layers of the sample were injected by adjusting the injection needle height. 0 mm was used for the water layer and +11 mm was used for the octanol layer. The retention time for berberine elution is 1.4 minutes and peak areas were assigned using the onboard Agilent software based upon absorbance at 230 nm. A HPLC-UV chromatogram was recorded for each layer of the partition according the procedure described above. The area under the peak between 1.2-2.2 minutes in the chromatogram was used as a measure of concentration of berberine. A linear relationship was assumed to exist between absorbance and concentration of berberine at the concentrations evaluated. […] The area-blank (cps) was used directly in the equation below.

[1] = system: PCSK9 expression in HEPG2 cells; assay: Berberine signaling in HEPG2: PCSK9 western blot of supernatant; type: cell-based, human; settings: 24 hours; for expression of PCSK9 in supernatant (western blot): 25 to 3.125 ug/ml, versus negative control
Description: HEPG2 cells were cultured in 24 well plates to confluence in DMEM supplemented with 10% FBS. After reaching confluence, cells were incubated overnight with 0.1% FBS OPTIMEM for serum starvation. After serum starvation the cells were incubated with berberine, DHB, or THB in 0.1% FBS OPTIMEM using the following dose course: 25 ug/ml, 12.5 ug/ml 6.25 ug/ml 3.125 ug/ml for 24 hours. Supernatant was collected after stimulation and western blotted as follows:
(1) Resolved on 12.5% gel.
(3) Blocked with 3% BSA TBST (4) Rabbit anti PCSK9 (Cayman chemicals cat 10007185) at 1/600 in TTBS (5) Wash 3×5 min with TTBS (6) HRP-Goat anti-Rabbit 1/1000 (Cayman chemicals) (7) Wash 3×5 min with TTBS (8) Detection with ECL
Proprotein convertase subtilisin/kexin type 9 (PCSK9) post-transcriptionally downregulates the low-density lipoprotein receptor (LDLR) by binding to the receptor's epidermal growth factor repeat A on the cell surface and shuttling the LDLR to the lysosomes for degradation. […] Previous reports indicate that berberine has lipid lowering effects in both animal models and human trials (Arrigo F. G., Cicero, L., Rovati C. et al., 2007). The signalling effects of berberine, DHB, and THB were evaluated using the human liver cell line HEPG2. PCSK9, an enzyme that acts in cholesterol homeostasis, is expressed in HEPG2 cells and these cells have previously been used as a model of dyslipidemia. PCSK9 binds to LDL receptor causing uptake of LDL and the LDL receptor and targets both molecules for degradation upon internalization. In the absence of PCSK9, LDL and LDL receptor are still internalized, however, LDL receptor is not degraded but instead recycled to the cell surface resulting in more efficient uptake of circulating LDL.

[2] = Plasma concentrations of berberine, berberine glucuronide, simvastatin and simvastatin hydroxy acid in rats (Example 20); type: in vivo; settings: rats (n=2); oral 180 mg/kg/dose or transdermal 3.6 g/kg/dose
male Zucker rats (fa/fa) = assay: Efficacy of administration routes and dihydroberberine in a model of metabolic syndrome (Example 22); type: in vivo; settings: BID
Description: This study examined the efficacy of administration of a derivative of berberine (dihydroberberine) in transdermal formulations in 24 male Zucker rats (fa/fa), similar to the study protocol in Example 19. The following formulations were prepared: […] Animals were maintained without treatment until ten weeks of age at which time groups were randomized by weight and blood glucose. Animal weights were recorded daily and expressed here as percent change from Day zero.

[3] = Circulating berberine after chronic administration by various routes (Example 23); type: in vivo; settings: male, rat, plasma, oral, 180 mg/kg/dose; 15 days administration BID, Zucker fa/fa rats
[4] = Solubility testing of berberine and dihydroberberine using various solvents; type: physicochemical
Description: Solubility was determined in a step-wise procedure that involved attempting to dissolve the berberine/DHB in the solvents at relatively high concentrations. […] Then the expected solvent was added to the berberine/DHB. The container was sonicated at RT or at 40C for 30 minutes. The following solvents were tested to dissolve the DHB. Dimethyl sulfoxide (Reagent Grade; […] Lot #STB[…]), and Glycerol tributyrate (Sigma T8626; Lot #BCBQ […]). […] The solubility was visually checked and state of solubility was recorded.

[5] = uptake inhibited by P-gp-mediated efflux; cited from earlier work
[6] = rats; cited from earlier work
[7] = humans; cited from earlier work
[8] = cited from earlier work
[9] = oral route, published; cited from earlier work
[10] = Glycerol tributyrate, sonication 40 C.
[11] = Glycerol tributyrate, sonication RT
[12] = Isopropyl myristate, sonication 40 C.
[13] = Isopropyl myristate, sonication RT
[14] = Isosorbid-dimethyl ether 98%, sonication RT
[15] = Oleyl alcohol, sonication 40 C.
[16] = first four weeks of treatment, 0.5 g t.i.d.

COc1ccc2cc3[n+](cc2c1OC)CCc1cc2c(cc1-3)OCO2 [berberine, Berberine]
berberine in the lipophilic octanol solvent (physchem): ~3% | logD (physchem): -0.63 | Octanol area (cps) 230 nm (physchem; Partition): 1763 cps | Water area (cps) 230 nm (physchem; Partition): 34696 cps | Octanol area (cps) 230 nm (physchem; Partition minus blank): 807 cps | Water area (cps) 230 nm (physchem; Partition minus blank): 34342 cps | berberine remaining within the water layer (physchem; octanol/water): 97% | concentration down to which expression of PCSK9 was reduced [1]: 6.25 µg/mL | expression of PCSK9 in supernatant (western blot) [1]: reduce the expression of PCSK9 | expression of PCSK9 in supernatant (western blot) ([1]; listed as Berberine): down-regulate the expression of PCSK9 | berberine plasma concentration [2]: 0.44 ng/mL | cholesterol levels on Day 14 (mmol/L+/−SEM) (male Zucker rats (fa/fa)): 8.3 ± 0.7 mmol/L | rate of weight gain (grams/day) (male Zucker rats (fa/fa)): 1.7 grams/day | triglyceride levels on Day 14 (mmol/L+/−SEM) (male Zucker rats (fa/fa)): 14.8 ± 3.0 mmol/L | concentration at 15 days [3]: 101 ng/mL | Dissolving Capability ([4]; Ethanol, sonication 40 C.): 40 mg/mL | State of Solubility ([4]; Ethanol, sonication 40 C.): Suspension | Dissolving Capability ([4]; Ethanol, sonication RT): 25 mg/mL | State of Solubility ([4]; Ethanol, sonication RT): Suspension | Dissolving Capability [4, 10]: 250 mg/mL | State of Solubility [4, 10]: Suspension | Dissolving Capability [4, 11]: 50 mg/mL | State of Solubility [4, 11]: Suspension | Dissolving Capability [4, 12]: 250 mg/mL | State of Solubility [4, 12]: Suspension | Dissolving Capability [4, 13]: 50 mg/mL | State of Solubility [4, 13]: Suspension | Dissolving Capability ([4]; Isosorbid-dimethyl ether 98%, sonication 40 C.): 250 mg/mL | State of Solubility ([4]; Isosorbid-dimethyl ether 98%, sonication 40 C., at the concentration of the same line): Suspension | Dissolving Capability [4, 14]: 50 mg/mL | State of Solubility [4, 14]: Suspension | Dissolving Capability [4, 15]: 250 mg/mL | State of Solubility [4, 15]: Suspension | Dissolving Capability ([4]; Oleyl alcohol, sonication RT): 50 mg/mL | State of Solubility ([4]; Oleyl alcohol, sonication RT): Suspension | Dissolving Capability ([4]; Water, sonication 40 C.): 50 mg/mL | State of Solubility ([4]; Water, sonication 40 C.): Suspension | Dissolving Capability ([4]; Water, sonication RT): 25 mg/mL | State of Solubility ([4]; Water, sonication RT): Suspension | bioavailability [5]: less than 5% | bioavailability of orally administered berberine [6]: approximately 0.7% | bioavailability [7]: below 1% | abdominal pain, percentage of patients [8, 16]: 3.4% | constipation, percentage of patients [8, 16]: 6.9% | diarrhea, percentage of patients [8, 16]: 10.3% | flatulence, percentage of patients [8, 16]: 19.0% | patients with adverse gastrointestinal side-effects ([8]; type 2 diabetes patients, 13 week berberine treatment): 34.5% | Tmax [9]: ~15 min | time to almost complete clearance after administration [9]: ≤ 30 min
